Patent publication US6440935B1, “Inhibition of eucaryotic pathogens and neoplasms and stimulation of fibroblasts and lymphocytes with lytic peptides” (priority 1987, dated 2002)
Read-outs that look alike come from different tables or passages of the source. Residues, ends and D or L forms follow the SMILES beside them.

What was measured:
[1] = EL-4 cytotoxicity by chromium release; type: cell-based; settings: for cytotoxicity at 100 µM: read-out: Percent Cytotoxicity
Procedure: (§1) The EL-4 cells were then incubated for 30 minutes in the presence of various peptides at different concentrations. Cytotoxicity was taken as a percentage of chromium released (measured in the culture supernatant) relative to the chromium released by EL-4 cells lysed by detergent.
(§2) Similar chromium release data were obtained using the same procedure with a 100 μM concentration of peptide, but with EL-4 cell concentrations of 2×10^6, 10^6, and 5×10^5 cells in 0.5 ml medium.
(§3) The chromium release data was also obtained by using the supernatant from unlabeled EL-4 cells cultured for 30 minutes in the presence of 100 μM peptide as medium for […] EL-4 cultured as described above. The percent cytotoxicity calculated as described above was 20.16 for cecropin SB-37, 19.73 for *cecropin SB-37, 41.96 for Shiva 1, and 106.67 for melittin.

EL-4 cells = experiment: EL-4 cytotoxicity by chromium release; type: cell-based; settings: 30 minutes, 10^6 EL-4 cells
Procedure: as §1, §2, §3

[2] = tested on: Plasmodium falciparum in human red blood cells; settings: 24-hour period, relative to untreated infected red blood cells

Structure (SMILES): CC[C@H](C)[C@H](NC(=O)CNC(=O)[C@H](CC(N)=O)NC(=O)[C@H](CCCNC(=N)N)NC(=O)[C@@H](NC(=O)[C@H](CC(N)=O)NC(=O)[C@H](CCCNC(=N)N)NC(=O)CNC(=O)[C@H](CCSC)NC(=O)[C@H](CCCCN)NC(=O)[C@H](CCC(=O)O)NC(=O)[C@@H](NC(=O)[C@H](CCCCN)NC(=O)[C@H](CCCCN)NC(=O)[C@H](Cc1ccccc1)NC(=O)[C@@H](NC(=O)[C@H](CCCCN)NC(=O)[C@H](Cc1c[nH]c2ccccc12)NC(=O)[C@H](CCCCN)NC(=O)[C@@H]1CCCN1C(=O)[C@@H](N)CCSC)C(C)C)[C@@H](C)CC)[C@@H](C)CC)C(=O)N[C@H](C(=O)N[C@@H](CCCCN)C(=O)N[C@@H](C)C(=O)NCC(=O)N1CCC[C@H]1C(=O)N[C@@H](C)C(=O)N[C@H](C(=O)N[C@@H](C)C(=O)N[C@H](C(=O)N[C@@H](CC(C)C)C(=O)NCC(=O)N[C@@H](CCC(=O)O)C(=O)N[C@@H](C)C(=O)N[C@@H](CCCCN)C(=O)N[C@@H](C)C(=O)N[C@@H](CC(C)C)C(=O)NCC(N)=O)C(C)C)[C@@H](C)CC)C(C)C [Cecropin SB-37] (H-MPKWKVFKKIEKMGRNIRNGIVKAGPAIAVLGEAKALG-NH2)
- cytotoxicity at 100 µM ([1]; 2 × 10^6 cells per 0.5 ml): 93.8%
- cytotoxicity at 100 µM ([1]; 5 × 10^5 cells per 0.5 ml): 99.6%
- cytotoxicity at 100 µM ([1]; 10^6 cells per 0.5 ml): 89.2%
- cytotoxicity ([1]; supernatant from unlabeled EL-4 cells cultured 30 minutes with 100 μM peptide used as medium for labeled EL-4, read-out: percent cytotoxicity): 20.2%
- Percent Cytotoxicity (chromium release vs detergent-lysed cells) (EL-4 cells; 10 μM): 0.0%
- Percent Cytotoxicity (chromium release vs detergent-lysed cells) (EL-4 cells; 25 μM): 4.49%
- Percent Cytotoxicity (chromium release vs detergent-lysed cells) (EL-4 cells; 50 μM): 6.63%
- Percent Cytotoxicity (chromium release vs detergent-lysed cells) (EL-4 cells; 100 μM): 36.42%
- LD50 (concentration for 50% reduction in 3H-hypoxanthine uptake) [2]: about 22.5 μM
